{"source": "patent US11938129B2", "about": "“Methods and compositions for the treatment of vascular disease” (THE GENERAL HOSPITAL CORPORATION, priority 2018, dated 2024)", "type_in_all_cases": "in vivo, mouse", "key": {"FAK": {"test_system": "FAK", "assay": "immunofluorescence of p-FAK in ligated carotid", "conditions": "media and intima of carotid arteries", "procedure": "(§1) All mice used in this study were cared for under strict compliance with the Partners Institutional Animal Care and Use Committee (IACUC), regulated by the United States Public Health Service (USPHS). Carotid ligations were performed in 10 week old mice. Briefly, animals were anesthetized using intraperitoneal ketamine/xylazine (80 and 12 mg/kg, respectively) followed by a small incision in the neck to expose the carotid artery. Then the left carotid was ligated at the carotid bifurcation level using a 8-0 silk suture. At 21 days mice were sacrificed and carotids were collected for histological analysis. Approximately 98% of wild type mice developed stenotic lesions. Mice that developed thrombosis of the ligated carotid were excluded from the study (−1¬2%). Malatl knockout mice were kindly provided by Dr. David Spector (Cold Spring Harbor, N.Y.). Hdac9 flox/flox/Talgn-cre mice were generated as previously reported (10). […]\n(§2) Left and right carotids were cryosectioned using OCT standard protocol and sectioning. […] Slides 1, 5, 10, and 15 were H&E stained for quantification of neointima. For quantification of the neointima, internal and external elastic lamina perimeters and medial thickness from 4 quadrants were measured and averaged using Image J software from the National Institutes of Health (NIH). […]"}, "SM22a": {"test_system": "SM22a", "assay": "immunostaining of SM22a protein in aortas of treated Fbn1C1039G/+ mice", "conditions": "compared to control Fbn1C1039G/+ mice", "procedure": "Latex was injected into the left ventricular apex under low pressure until it was visible in the femoral artery. Animals were then fixed in Formalin (10%) for 24 hours before transfer to 70% ethanol for dissection and storage. Aortas were then removed from the animals or dissected in situ for photography prior to paraffinization and sectioning (10 pM). Slides were produced for tissue staining or stained with standard stains including H&E staining, collagen deposition (Trichrome Stain (Masson) Kit, Sigma, USA), elastin (Verhoeff-Van Gieson, Thermo Scientific, MI, USA) or F-actin (ActinGreen™ 488 ReadyProbes, ThermoFisher Scientific, USA) for quantitative analysis. Elastin integrity score was rated by blinded observers and graded on an arbitrary scale of 5 (indicating high quality elastic fiber) to 1 (indicating severe elastin fragmentation). For nuclear staining aortas from human and mice were cryosectioned using OCT standard protocol as described previously (Fischer et al., 2008). Cohorts of 8-week-old wild-type or Fbn1cw3gGi+ mice were treated with oral administration in drinking water of either Losartan or GSK343 for 20 weeks (FIG. 5). […] Then 200 mL of drinking water was supplemented with 250 pL of GSK343 stock solution. […] Aortic dimensions were monitored monthly by echocardiograms as mentioned above."}, "VSMC phenotypic markers": {"test_system": "VSMC phenotypic markers", "assay": "expression of VSMC phenotypic markers in aortas of treated Fbn1C1039G/+ mice", "conditions": "aortas of Fbn1C1039G/+ mice treated from two to six months", "procedure": "Total RNA was prepared from tissue or primary cells using RNeasy kit (Qiagen) following the manufacturer's protocol. The cDNA was prepared by reverse transcription, and expression of SMC contractile genes were analyzed by qRT-PCR on SYBR green system (Applied Biosystem, Foster city, CA). 50 pL of plasma from wild-type or Fbn1cl° 39G1+ mice were used to prepare total RNA as mentioned above. Expression results were analyzed by the ddCT method and GAPDH (encoding glyceraldehyde-3-phosphate dehydrogenase) was used as a housekeeping gene. Fold change were calculated by taking the average over all the control samples as the baseline. […] The supernatant was removed and the vesicular fraction was resuspended with 750 pL of TRizol reagent followed by RNA extraction using the RNeasy kit (Qiagen) according to the manufacturer's protocol. Cohorts of 8-week-old wild-type or Fbn1cw3gGi+ mice were treated with oral administration in drinking water of either Losartan or GSK343 for 20 weeks (FIG. 5). […] Then 200 mL of drinking water was supplemented with 250 pL of GSK343 stock solution. Control group for either drug treatment was given with equal volumes of sterile water. Bottles containing either losartan or GSKS343 were replaced with fresh water supplied with drugs every 3 days. For experiments described in FIG. 5A-5C, 16-week-old wild-type or Fbnicw3gGi+ mice were treated for 8 weeks and as described above. Additionally, a group of mice were given a combination of both losartan and GSK343 at the same concentrations as of other single drug treatments. Aortic dimensions were monitored monthly by echocardiograms as mentioned above."}, "[1]": {"test_system": "neointimal formation in ligated carotid", "assay": "murine carotid artery ligation model: neointimal formation and stenosis (histology)", "conditions": "wild-type mice, left carotid ligation, 21 days; GSK343 in drinking water from 24 hrs before ligation for 3 weeks; GapmeR 15 nmol 24 hrs before and 7 days post-ligation", "procedure": "as §1, §2"}}, "note": "Entries after “also recorded” stand apart in the source; their conditions may differ.", "data": [{"smiles": "CCCc1cc(C)[nH]c(=O)c1CNC(=O)c1cc(-c2ccnc(N3CCN(C)CC3)c2)cc2c1cnn2C(C)C", "note": "[GSK343]", "values": [{"measurement": "phosphorylation of FAK", "setting": "FAK", "value": "dramatic reduction"}, {"measurement": "SM22a protein expression (immunostaining of aortas)", "setting": "SM22a", "value": "recovery of SM22a protein expression"}, {"measurement": "contractile elements", "setting": "VSMC phenotypic markers", "value": "better recovery of contractile elements"}, {"measurement": "synthetic markers (Col1a1, Col3a1, Gja1, Mmp2)", "setting": "VSMC phenotypic markers", "value": "inability to repress synthetic markers"}, {"measurement": "extent of the stenotic response / neointimal formation", "setting": "[1]", "value": "significant inhibition of neointimal formation; also recorded: dramatically improved the extent of the stenotic response"}]}]}
